Measured values: patent US20200022370A1, “MICROBIOCIDAL OXADIAZOLE DERIVATIVES” (SYNGENTA PARTICIPATIONS AG, priority 2016, published 2020)

Columns and labels:
[1] = test system: Puccinia recondita f. Sp. Tritici; test: Puccinia recondita f. sp. tritici / wheat / leaf disc preventative (brown rust); format: in vivo; conditions: foliar, 200 ppm in the applied formulation, wheat leaf segments cv. Kanzler, inoculated 1 day after application, vs untreated, 7 to 9 days after application, read-out: disease control
Protocol: (§1) Leaf disks or leaf segments of various plant species are cut from plants grown in a greenhouse. The cut leaf disks or segments are placed in multiwell plates (24-well format) onto water agar. The leaf disks are sprayed with a test solution before (preventative) or after (curative) inoculation. Compounds to be tested are prepared as DMSO solutions (max. 10 mg/ml) which are diluted to the appropriate concentration with 0.025% Tween20 just before spraying. The inoculated leaf disks or segments are incubated under defined conditions (temperature, relative humidity, light, etc.) according to the respective test system. A single evaluation of disease level is carried out 3 to 14 days after inoculation, depending on the pathosystem. Percent disease control relative to the untreated check leaf disks or segments is then calculated.
Example 1: Fungicidal Activity Against Puccinia recondita f. Sp. Tritici/Wheat/Leaf Disc Preventative (Brown Rust)
Wheat leaf segments cv. Kanzler were placed on agar in multiwell plates (24-well format) and sprayed with the Formulated test compound diluted in water. The leaf disks were inoculated with a spore suspension of the fungus 1 day after application. The inoculated leaf segments were incubated at 19° C. and 75% relative humidity (rh) under a light regime of 12 hours light/12 hours darkness in a climate cabinet and the activity of a compound was assessed as percent disease control compared to untreated when an appropriate level of disease damage appears in untreated check leaf segments (7 to 9 days after application).
(§2) The following compounds at 200 ppm in the applied Formulation give at least 80% disease control in this test when compared to untreated control leaf disks under the same conditions, which show extensive disease development.

[2] = test system: Puccinia recondita f. Sp. Tritici; test: Puccinia recondita f. sp. tritici / wheat / leaf disc curative (brown rust); format: in vivo; conditions: foliar, 200 ppm in the applied formulation, wheat leaf segments cv. Kanzler, compound applied 1 day after inoculation, vs untreated, 6 to 8 days after application, read-out: disease control
Protocol: as §1
Example 2: Fungicidal Activity Against Puccinia recondita f. sp. tritici/Wheat/Leaf Disc Curative (Brown Rust)
Wheat leaf segments cv. Kanzler are placed on agar in multiwell plates (24-well format). The leaf segments are then inoculated with a spore suspension of the fungus. Plates were stored in darkness at 19° C. and 75% relative humidity. The Formulated test compound diluted in water was applied 1 day after inoculation. The leaf segments were incubated at 19° C. and 75% relative humidity under a light regime of 12 hours light/12 hours darkness in a climate cabinet and the activity of a compound was assessed as percent disease control compared to untreated when an appropriate level of disease damage appears in untreated check leaf segments (6 to 8 days after application).
as §2

[3] = test system: Glomerella lacenarium (Colletotrichum lacenarium); test: Glomerella lacenarium (Colletotrichum lacenarium) liquid culture / cucumber / preventative (anthracnose); format: cell-based; conditions: 20 ppm, liquid culture in PDB, 24° C., inhibition of growth measured photometrically 3 to 4 days after application, vs untreated, read-out: disease control
Protocol: Mycelia fragments or conidia suspensions of a fungus prepared either freshly from liquid cultures of the fungus or from cryogenic storage, are directly mixed into nutrient broth. DMSO solutions of the test compound (max. 10 mg/ml) are diluted with 0.025% Tween20 by a factor of 50 and 10 μl of this solution is pipetted into a microtiter plate (96-well format). The nutrient broth containing the fungal spores/mycelia fragments is then added to give an end concentration of the tested compound. The test plates are incubated in the dark at 24° C. and 96% relative humidity. The inhibition of fungal growth is determined photometrically after 2 to 7 days, depending on the pathosystem, and percent antifungal activity relative to the untreated check is calculated.
Example 4: Fungicidal Activity Against Glomerella lacenarium (Colletotrichum lacenarium) Liquid Culture/Cucumber/Preventative (Anthracnose)
Conidia of the fungus from cryogenic storage are directly mixed into nutrient broth (PDB-potato dextrose broth). After placing a (DMSO) solution of test compound into a microtiter plate (96-well format), the nutrient broth containing the fungal spores is added. The test plates are incubated at 24° C. and the inhibition of growth is measured photometrically 3 to 4 days after application.
The following compounds at 20 ppm in the applied Formulation give at least 80% disease control in this test when compared to untreated control under the same conditions, which show extensive disease development.

[4] = test system: Phakopsora pachyrhizi; test: Phakopsora pachyrhizi / soybean / leaf disc preventative (Asian soybean rust); format: in vivo; conditions: foliar, 200 ppm in the applied formulation, soybean leaf disks, inoculated one day after application, vs untreated, 12 to 14 days after application, read-out: disease control
Protocol: as §1
Example 3: Fungicidal Activity Against Phakopsora pachyrhizi/Soybean/Leaf Disc Preventative (Asian Soybean Rust)
Soybean leaf disks are placed on water agar in multiwell plates (24-well format) and sprayed with the Formulated test compound diluted in water. One day after application leaf discs are inoculated by spraying a spore suspension on the lower leaf surface. After an incubation period in a climate cabinet of 24-36 hours in darkness at 20° C. and 75% rh leaf disc are kept at 20° C. with 12 h light/day and 75% rh. The activity of a compound is assessed as percent disease control compared to untreated when an appropriate level of disease damage appears in untreated check leaf disks (12 to 14 days after application).
as §2

COCC(=O)N(C)c1ccc(-c2noc(C(F)(F)F)n2)cc1 [Compound 1.129, 2-methoxy-N-methyl-N-[4-[5-(trifluoromethyl)-1,2,4-oxadiazol-3-yl]phenyl]acetamide]
≥ 80%: pest or weed control at 200 ppm [1] | pest or weed control at 200 ppm [2] | inhibition of growth at 20 ppm [3]

O=C(Nc1ccc(-c2noc(C(F)(F)F)n2)cc1)C1CC1 [Compound 2.15, N-[4-[5-(trifluoromethyl)-1,2,4-oxadiazol-3-yl]phenyl] cyclopropane-carboxamide]
≥ 80%: pest or weed control at 200 ppm [1] | pest or weed control at 200 ppm [2] | inhibition of growth at 20 ppm [3]

CC(C)OCC(=O)Nc1ccc(-c2noc(C(F)(F)F)n2)cc1 [Compound 1.101, 2-isopropoxy-N-[4-[5-(trifluoromethyl)-1,2,4-oxadiazol-3-yl]phenyl]acetamide]
≥ 80%: pest or weed control at 200 ppm [1] | pest or weed control at 200 ppm [2] | inhibition of growth at 20 ppm [3]

CON(C)C(=O)N(C)c1ccc(-c2noc(C(F)(F)F)n2)cc1 [Compound 1.126, 1-methoxy-1,3-dimethyl-3-[4-[5-(trifluoromethyl)-1,2,4-oxadiazol-3-yl]phenyl]urea]
≥ 80%: pest or weed control at 200 ppm [1] | pest or weed control at 200 ppm [2] | inhibition of growth at 20 ppm [3]

O=C(Nc1ccc(-c2noc(C(F)(F)F)n2)cc1)C1CC1(F)F (stereo not drawn) [Compound 1.118, 2,2-difluoro-N-[4-[5-(trifluoromethyl)-1,2,4-oxadiazol-3-yl]phenyl]cyclo-propanecarboxamide]
≥ 80%: pest or weed control at 200 ppm [4] | pest or weed control at 200 ppm [1] | inhibition of growth at 20 ppm [3]

CCCC(C)C(=O)Nc1ccc(-c2noc(C(F)(F)F)n2)cc1 (stereo not drawn) [Compound 1.86, 2-methyl-N-[4-[5-(trifluoromethyl)-1,2,4-oxadiazol-3-yl]phenyl] pentanamide]
≥ 80%: pest or weed control at 200 ppm [4] | pest or weed control at 200 ppm [1] | inhibition of growth at 20 ppm [3]

O=C(Nc1ccc(-c2noc(C(F)(F)F)n2)cc1)C1CCOC1 (stereo not drawn) [Compound 1.116, N-[4-[5-(trifluoromethyl)-1,2,4-oxadiazol-3-yl]phenyl] tetrahydrofuran-3-carboxamide]
≥ 80%: pest or weed control at 200 ppm [1] | pest or weed control at 200 ppm [2] | inhibition of growth at 20 ppm [3]

O=C(Nc1ccc(-c2noc(C(F)(F)F)n2)cc1)C1CCCCO1 (stereo not drawn) [Compound 1.72, N-[4-[5-(trifluoromethyl)-1,2,4-oxadiazol-3-yl]phenyl] tetrahydropyran-2-carboxamide]
≥ 80%: pest or weed control at 200 ppm [4] | pest or weed control at 200 ppm [1] | inhibition of growth at 20 ppm [3]

O=C(CCc1ccncc1)Nc1ccc(-c2noc(C(F)(F)F)n2)cc1 [Compound 1.107, 3-(4-pyridyl)-N-[4-[5-(trifluoromethyl)-1,2,4-oxadiazol-3-yl]phenyl] propanamide]
≥ 80%: pest or weed control at 200 ppm [1] | pest or weed control at 200 ppm [2] | inhibition of growth at 20 ppm [3]

COc1ccc(CC(=O)Nc2ccc(-c3noc(C(F)(F)F)n3)cc2)cc1 [Compound 1.71, 2-(4-methoxyphenyl)-N-[4-[5-(trifluoromethyl)-1,2,4-oxadiazol-3-yl]phenyl]acetamide]
≥ 80%: pest or weed control at 200 ppm [4] | pest or weed control at 200 ppm [1] | inhibition of growth at 20 ppm [3]

O=C(Cc1ccc2c(c1)OCO2)Nc1ccc(-c2noc(C(F)(F)F)n2)cc1 [Compound 1.12, 2-(1,3-benzodioxol-5-yl)-N-[4-[5-(trifluoromethyl)-1,2,4-oxadiazol-3-yl]phenyl]acetamide]
≥ 80%: pest or weed control at 200 ppm [4] | pest or weed control at 200 ppm [1] | inhibition of growth at 20 ppm [3]

CC(C)CC(=O)Nc1ccc(-c2noc(C(F)(F)F)n2)cc1 [Compound 1.85, 3-methyl-N-[4-[5-(trifluoromethyl)-1,2,4-oxadiazol-3-yl]phenyl]butanamide]
≥ 80%: pest or weed control at 200 ppm [4] | pest or weed control at 200 ppm [1] | inhibition of growth at 20 ppm [3]

COc1ncnc(OC)c1CC(=O)Nc1ccc(-c2noc(C(F)(F)F)n2)cc1 [Compound 1.36, 2-(4,6-dimethoxypyrimidin-5-yl)-N-[4-[5-(trifluoromethyl)-1,2,4-oxadiazol-3-yl]phenyl]acetamide]
≥ 80%: pest or weed control at 200 ppm [4] | pest or weed control at 200 ppm [1] | inhibition of growth at 20 ppm [3]

CSCC(C)C(=O)Nc1ccc(-c2noc(C(F)(F)F)n2)cc1 (stereo not drawn) [Compound 1.77, 2-methyl-3-methylsulfanyl-N-[4-[5-(trifluoromethyl)-1,2,4-oxadiazol-3-yl]phenyl] propanamide]
≥ 80%: pest or weed control at 200 ppm [1] | pest or weed control at 200 ppm [2] | inhibition of growth at 20 ppm [3]

O=C(Nc1ccc(-c2noc(C(F)(F)F)n2)nc1)c1ccc(-n2ccnc2)cc1 [Compound 1.54, 4-imidazol-1-yl-N-[6-[5-(trifluoromethyl)-1,2,4-oxadiazol-3-yl]-3-pyridyl]benzamide]
≥ 80%: pest or weed control at 200 ppm [4] | pest or weed control at 200 ppm [1] | inhibition of growth at 20 ppm [3]

O=C(CCO)Nc1ccc(-c2noc(C(F)(F)F)n2)cc1 [Compound 1.75, 3-hydroxy-N-[4-[5-(trifluoromethyl)-1,2,4-oxadiazol-3-yl]phenyl] propanamide]
≥ 80%: pest or weed control at 200 ppm [1] | pest or weed control at 200 ppm [2] | inhibition of growth at 20 ppm [3]

O=C(Cn1cccn1)Nc1ccc(-c2noc(C(F)(F)F)n2)cc1 [Compound 1.104, 2-pyrazol-1-yl-N-[4-[5-(trifluoromethyl)-1,2,4-oxadiazol-3-yl]phenyl]acetamide]
≥ 80%: pest or weed control at 200 ppm [1] | pest or weed control at 200 ppm [2] | inhibition of growth at 20 ppm [3]

CC(=O)N(C)c1ccc(-c2noc(C(F)(F)F)n2)cc1 [Compound 2.18, N-methyl-N-[4-[5-(trifluoromethyl)-1,2,4-oxadiazol-3-yl]phenyl] acetamide]
≥ 80%: pest or weed control at 200 ppm [1] | pest or weed control at 200 ppm [2] | inhibition of growth at 20 ppm [3]

CC1CC1C(=O)Nc1ccc(-c2noc(C(F)(F)F)n2)cc1 (stereo not drawn) [Compound 1.90, 2-methyl-N-[4-[5-(trifluoromethyl)-1,2,4-oxadiazol-3-yl]phenyl]cyclo-propanecarboxamide]
≥ 80%: pest or weed control at 200 ppm [4] | pest or weed control at 200 ppm [1] | inhibition of growth at 20 ppm [3]

O=C(CC1CC1(F)F)Nc1ccc(-c2noc(C(F)(F)F)n2)cc1 (stereo not drawn) [Compound 1.124, 2-(2,2-difluorocyclopropyl)-N-[4-[5-(trifluoromethyl)-1,2,4-oxadiazol-3-yl]phenyl]acetamide]
≥ 80%: pest or weed control at 200 ppm [4] | pest or weed control at 200 ppm [1] | inhibition of growth at 20 ppm [3]

Cc1ccnn1CC(=O)Nc1ccc(-c2noc(C(F)(F)F)n2)cc1 [Compound 1.87, 2-(5-methylpyrazol-1-yl)-N-[4-[5-(trifluoromethyl)-1,2,4-oxadiazol-3-yl]phenyl]acetamide]
≥ 80%: pest or weed control at 200 ppm [1] | pest or weed control at 200 ppm [2] | inhibition of growth at 20 ppm [3]
